Experimental data as given in patent EP0034481A1, “2-Methyl-5-thiazole-methylamine and carboxamide derivatives” (Grigg, Ronald Ernest, priority 1980, dated 1981).

How the values were obtained:
[1] = Solubility in solvents (qualitative); type: physicochemical
Diazepam cell receptor = assay: Central nervous system activity: adhesion to specific cell receptor surfaces (diazepam cell receptor); type: binding
Procedure: Various compounds of this invention have been tested for their biological activity. Peripheral activity was determined by contraction of the guinea pig ileum/frog rectus while central nervous system activity was determined by adhesion to specific cell receptor surfaces.

guinea pig ileum = assay: Peripheral activity: contraction of the guinea pig ileum, relative to nicotine; type: cell-based
Procedure: Peripheral activity was determined by contraction of the guinea pig ileum/frog rectus while central nervous system activity was determined by adhesion to specific cell receptor surfaces.

LD50 (acute toxicity) = conditions: in vivo

| soluble in ethanol [1] | soluble in water [1] | soluble in dilute hydrochloric acid [1] | soluble in chloroform ([1]; chloroform) | soluble in polyethylene glycol ([1]; polyethylene glycol) | SMILES | Diazepam cell receptor adhesion (Diazepam cell receptor) [mM] | Guinea Pig ileum test (% wrt nicotine) (guinea pig ileum) | LD50 (LD50 (acute toxicity)) [mg/kg] |
| --- | --- | --- | --- | --- | --- | --- | --- | --- |
| soluble | soluble | – | – | – | Cc1ncc(C(=O)N2CCCC2)s1 [Example 1, 2-Methyl-5-(pyrrolidinocarbonyl)thiazole] | 0.55 | – | – |
| soluble | soluble | – | – | – | Cc1ncc(C(=O)N2CCCCC2)s1 [Example 2, 2-methyl-5-(piperidincrcarbonyl)thiazole] | 0.49 | – | – |
| soluble | soluble | soluble | – | – | Cc1ncc(C(=O)N2CCOCC2)s1 [Example 3, 2-methyl-S-(morpholinocarbonyl)thiazole] | 1.0 | – | – |
| – | – | – | soluble | soluble | Cc1ncc(C(=O)N2CCN(C(=O)c3cnc(C)s3)CC2)s1 [Example 5, N,N'-bis(2-methyl-5-thiazolecarbonyl)piperazine] | – | – | – |
| soluble | soluble | – | – | – | CCN(CC)C(=O)c1cnc(C)s1 [Example 6, N,N-diethyl 2-methyl-5-thiazolecarboxamide] | 3.2 | – | – |
| – | soluble | – | – | – | Cc1nnc(C(=O)N2CCCCC2)o1 [Example 11, 2-methyl-5-(piperidinocarbonyl)oxadiazole] | – | – | – |
| – | soluble | – | – | – | Cc1nnc(C(=O)N2CCCC2)o1 [Example 12, 5-methyl-2-(pyrrolidinocarbonyl)oxadiazole] | – | – | – |
| – | soluble | – | – | – | Cc1nnc(C(=O)N2CCOCC2)o1 [Example 13, 5-methyl-2-(morpholinocarbonyl)oxadiazole] | – | – | – |
| soluble | – | soluble | – | – | c1ccc(-c2ncc(CN3CCCC3)s2)cc1 [Example 17, 2-phenyl-5-(pyrroli-dinomethyl)thiazole] | – | – | – |
| soluble | soluble | soluble | – | – | Cc1ncc(CN2CCOCC2)s1 [Example 20, 2-methyl-5-(morpholinomethyl)thiazole] | 11 | – | – |
| soluble | – | soluble | – | – | c1ccc(-c2ncc(CN3CCCCC3)s2)cc1 [Example 24, 2-phenyl-(5-piperidinomethyl)thiazole] | – | – | – |

| SMILES | soluble in ethanol [1] | soluble in water [1] | soluble in dilute hydrochloric acid [1] | soluble in chloroform ([1]; chloroform) | soluble in polyethylene glycol ([1]; polyethylene glycol) | Diazepam cell receptor adhesion (Diazepam cell receptor) [mM] | Guinea Pig ileum test (% wrt nicotine) (guinea pig ileum) | LD50 (LD50 (acute toxicity)) [mg/kg] |
| --- | --- | --- | --- | --- | --- | --- | --- | --- |
| Cc1ncc(C(=O)NC23CC4CC(CC(C4)C2)C3)s1 [Example 7, N-adamantyl 2-methyl-5-thiazolecarboxamide] | soluble | soluble | soluble | – | – | – | 0 | – |
| Cc1ncc(CN2CCCC2)s1 [Example 18, 2-methyl-5-(pyrrolidinomethyl)thiazole] | soluble | soluble | – | – | – | 4.4 | – | 7 to 8 |
| Cc1ncc(CN2CCCCC2)s1 [Example 19, 2-methyl-S-(piperidinomethyl)thiazole] | soluble | soluble | – | – | – | 1.0 | – | 7 to 8 |
| CCN(CC)Cc1cnc(C)s1 [Example 21, 2-methyl-5-(diethylaminomethyl)thiazole] | soluble | soluble | – | – | – | 5.5 | – | 80 to 100 |
